Read-outs that look alike come from different tables or passages of the source.
How the values were obtained:
prostate cancer = test: Xenograft model of prostate cancer in NSG mice treated with PBMC; assay type: in vivo
[1] = test system: myelofibrosis induced by romiplostim; conditions: romiplostim 1 mg/kg s.c. days 1, 8, 15, 5 mg/kg i.p. daily for two weeks from day 8, wildtype mice
Experimental: 8-week female C57BL/6 J wild-type and Adra2a KO mice were administered saline or 1 mg/kg of romiplostim by a subcutaneous injection into the neck skin on days 1, 8 and 15. Clonidine or guanabenz were administrated i.p. at a dose of 5 mg/kg daily for two weeks starting from day 8. Mice were dissected on day 22 and peripheral blood was drawn by cardiac puncture, the platelet concentration was measured by Cell Counter Analyzer MS9-5V.

mammary adenocarcinoma = test: Tumor model: mammary adenocarcinoma; assay type: in vivo, mice; conditions: mammary adenocarcinoma (FIG. 22F, 23F)
Text: (§1) FIGS. 23A-H is a set of curves showing the tumor growth of mice treated with PBS (Control, circles) or guanabenz (GBZ, triangles) in different tumor models: such as mammary gland tumor (FIG. 23A), hepatocellular carcinoma (FIG. 23B), T cell lymphoma (FIG. 23C), lung cancer (FIG. 23D), myeloma (FIG. 23E), mammary adenocarcinoma (FIG. 23F), renal cancer (FIG. 23G) and fibrosarcoma (FIG. 23H).

myeloma = test: Tumor model: myeloma; assay type: in vivo, mice; conditions: myeloma (FIG. 22E, 23E)
Text: as §1

Q: Which results are given for Clc1cccc(Cl)c1N=C1NCCN1 [clonidine]?
A: tumor growth (prostate cancer): strong tumor inhibition; platelet (PLT) counts [1]: significantly reduces the platelet (PLT) counts; platelet (PLT) counts ([1]; listed as Clonidine): reduces the platelet count; tumor growth (mammary adenocarcinoma): strong tumor inhibition; tumor growth (myeloma): strong tumor inhibition
